Assay results published in patent publication US20240122829A1, “HAIR COMPOSITIONS, HAIR FORMULATIONS, PROCESSES OF PRODUCTION THEREOF, USES AND METHODS OF HAIR TREATMENT” (CHEMYUNION LTDA., priority 2021, published 2024).

Experiment: Repairing effect: maximum tension of hair fibers after 3 discoloration processes, composition applied in a leave-in base
Conditions: synergy test, after 3 discolorations; compositions at 5% in leave-in base; FIG. 11
Procedure: To evaluate the effectiveness of the repairing effect, tests of maximum tension were performed after 2 or 3 discoloration processes in hair samples, composed by a naïve control group (without discoloration process), a discolored control group, a group discolored with application of the Benchmark 1 composition and a group containing the compositions of the present patent application after two or three discoloration processes, the composition being applied in a leave-in base containing 1% or 5% of the composition, this composition being the Base A or Base B, while Benchmark consisted of a ready-to-use cosmetic base (Benchmark 2 or Benchmark 3).
The leave-in base comprises: 3%-5% cetostearyl alcohol 30/70; 0.8-2.5% cetyl alcohol 0.8-2.5%; 0.05%-0.1% disodium EDTA; 0.8%-2.5% CCTA cetyl trimethyl ammonium chloride; 0.25%-1% preservatives and anti-microbial agents and water q.s. […]
After the discoloration process, a standardized amount of Leave-in was applied to the strands with or without (control) 1% or 5% of the hair composition of the present patent application on damp hair, and this composition may be the Base A or Base B or the actives making up Base B, while the benchmark consisted of a ready-to-use cosmetic base (Benchmark 2 or Benchmark 3). […]

For `N=C(N)NCCC[C@H](N)C(=O)O` [arginine], the “increase in resistance in relation to the discolored strand” value was 3.9%.
